Reference: patent publication US20220264878A1, “HERBICIDAL COMPOSITION CONTAINING R-TYPE PYRIDYLOXY CARBOXYLIC ACID DERIVATIVE AND USE THEREOF” (Qingdao Kingagroot Chemical Compound Co., Ltd., priority 2019, published 2022)
Like-named read-outs stand apart in the source and are kept apart here.

How the values were obtained:
Format in all cases: in vivo
Digitaria sanguinalis = experiment: Post-emergence foliage spray, pot culture, fresh weight inhibition (Tables 151-206; 20 days); conditions: Digitaria sanguinalis, 480 h, read-out: Control effect (%) of A applied alone in corresponding dose
Protocol: Table 151-206: Digitaria sanguinalis, Amaranthus retroflexus, Conyza Canadensis, Capsella bursa-pastoris, Eleusine indica were collected in Huangdao of Shandong Province, Sinapis arvensis were collected in Sixian of Anhui Province, Alopecurus japonicus were collected in Tianchang of Anhui Province, Veronica didyma were collected in Siyang of Jiangsu Province.
(§1) The above weeds were cultivated by a pot culture method. […] Full and uniform weed seeds were selected, soaked in warm water at 25° C. for 6 hours, and germinated in a 28° C. biochemical incubator (darkness). The weed seeds that had just germinatedwere evenly placed on the surface of the soil and then covered with 0.5-1 cm soil according to the sizes of seeds.
The culture was carried out in a controllable sunlight greenhouse at 20 to 30° C., in natural light, and relative humidity of 57% to 72%.
(§2) The technical materials were all dissolved in acetone, and diluted with an aqueous solution containing 0.1% emulsifier Tween-80. The dilution is performed as required.
(§3) A ratio of the active ingredient A to the active ingredient B and amounts thereof in each group depends on the characteristics and toxicity of the two agents, as well as the main application purpose of a corresponding formulation. Based on the pre-tests in this study, the dosage of the active ingredient A and B applied alone and in combination were shown in the tables. Water containing the solvent and emulsifier same with the above groups but free of the agents was used as a blank control.
Table 1-48, 51-98, 101-148, 151-206: […] per treatment, that is, a total of 60 weeds were treated in one treatment.
Table 151-206: The agents were used for only once in the experiment. In the stage of weeds with 3˜4 leaves, the weeds were thinned out to maintain 15 weeds per pot and 45 weeds for each treatment, then continued to be cultured to 4˜5 leaves stage of grassy weeds, 5˜6 leaves stage of broadleaf weeds, and treated.
(§4) The well-cultured weeds were evenly placed on a platform with an area of 0.5 m^2, and a solution of agents was sprayed on the stems and leaves thereof by the 3WP-2000-type walking spray tower at a dosage of 450 kg/ha and at a spray pressure of 0.3 MPa. After all the solution was sprayed, the valve was closed. After 30 seconds, the door of the spray tower was opened, and the nutritional bowl was taken out. Then the valve was opened, and the spray tube was cleaned by spraying 50 ml of water.
(§5) A pot-culture method was employed. For the cultivation of weeds, please refer to the Section 1.1), and “Pesticide guidelines for laboratory bioactivity tests—herbicides”. As to a method for applying agents, please refer to the section 2.3.2), that is, a foliage treatment was employed. After the treatment, the weeds were routinely cultured in a greenhouse.
(§6) A method for investigating absolute number was employed, wherein whole seedlings of survival weeds were cut off with a blade along the soil surface, and the fresh weight of the weeds was weighed with an analytical balance. For dead weeds, the fresh weight thereof was zero.
Table 151-206: The investigation was performed after 20 days of the treatment for only once.
Theoretical fresh weight inhibition rate of a combination of two active ingredients in each group was calculated by the Gowing method (E0=X+Y−X*Y/100), and then compared with an actually measured inhibition rate (E), thereby effect of the combination (hereafter referred to as combined effect) on weeds was evaluated: the value of E-E0, which was greater than 10%, corresponded to a synergistic effect, the value of E-E0, which was less than −10%, corresponded to an antagonistic effect, and the value of E-E0, which was from −10% to 10%, corresponded to an additional effect.

Capsella bursa-pastoris = experiment: as above; conditions: Capsella bursa-pastoris, 480 h, read-out: Control effect (%) of A applied alone in corresponding dose
Protocol: as §1, §2, §3
In the stage of weeds with 3˜4 leaves, the weeds were thinned out to maintain 15 weeds per pot and 45 weeds for each treatment, then continued to be cultured to 4˜5 leaves stage of grassy weeds, 5˜6 leaves stage of broadleaf weeds, and treated.
as §4, §5, §6
(§7) Wherein, in the formula, X represented the fresh weight inhibition rate of the active ingredient A in a dosage of P, and Y represented the fresh weight inhibition rate of the active ingredient B in a dosage of Q.

Echinochloa caudate = experiment: Post-emergence foliage spray, pot culture, fresh weight inhibition (Tables 1-48, 51-98, 101-148; 24 days)
Protocol: as §1, §2, §3
(§8) In the stage of weeds with 3˜4 leaves, the weeds were thinned out to maintain 15 weeds per pot and 45 weeds for each treatment, then continued to be cultured to 5˜6 leaves stage of grassy weeds, 6˜7 leaves stage of broadleaf weeds, and treated.
as §4, §5, §6, §7

[1] = system: Echinochloa crusgalli var. zelayensis; experiment: as above; conditions: Echinochloa crus-galli, foliar, 576 h, foliage spray, 24 days, read-out: Control effect (%) of B applied alone in corresponding dose
Protocol: as §1, §2, §3, §8, §4, §5, §6, §7

Echinochloa oryzoides = experiment: as above
Protocol: as §1, §2, §3, §8, §4, §5, §6, §7

[2] = A alone 75 g a.i./ha, 20 days after treatment
[3] = A alone 150 g a.i./ha, 20 days after treatment

CCCCCCCCCCCOC(=O)[C@@H](C)Oc1nc(F)c(Cl)c(N)c1Cl [Compound A94]
pest or weed control at 75 g/ha (Digitaria sanguinalis; A 75 g a.i./ha, 20 days): 23.4%
pest or weed control at 150 g/ha (Digitaria sanguinalis; A 150 g a.i./ha, 20 days): 51.7%
pest or weed control at 75 g/ha (Capsella bursa-pastoris; A 75 g a.i./ha, 20 days): 6.2%
pest or weed control at 150 g/ha (Capsella bursa-pastoris; A 150 g a.i./ha, 20 days): 12.6%

CC(C)=NOC(=O)[C@@H](C)Oc1nc(F)c(Cl)c(N)c1Cl [Compound A130]
pest or weed control at 75 g/ha (Digitaria sanguinalis; [2]): 16.7%
pest or weed control at 150 g/ha (Digitaria sanguinalis; [3]): 36.8%
pest or weed control at 75 g/ha (Capsella bursa-pastoris; [2]): 5.4%
pest or weed control at 150 g/ha (Capsella bursa-pastoris; [3]): 13.2%

C[C@@H](Oc1nc(F)c(Cl)c(N)c1Cl)C(=O)OCc1ccccc1 [Compound A141]
pest or weed control at 75 g/ha (Digitaria sanguinalis; A 75 g a.i./ha, 20 days): 27.7%
pest or weed control at 150 g/ha (Digitaria sanguinalis; A 150 g a.i./ha, 20 days): 55.8%
pest or weed control at 75 g/ha (Capsella bursa-pastoris; A 75 g a.i./ha, 20 days): 7.8%
pest or weed control at 150 g/ha (Capsella bursa-pastoris; A 150 g a.i./ha, 20 days): 16.4%

COC(=O)[C@H](Oc1nc(F)c(Cl)c(N)c1Cl)c1ccccc1 [Compound A171]
pest or weed control at 75 g/ha (Digitaria sanguinalis; A 75 g a.i./ha, 20 days): 19.2%
pest or weed control at 150 g/ha (Digitaria sanguinalis; A 150 g a.i./ha, 20 days): 31.9%
pest or weed control at 75 g/ha (Capsella bursa-pastoris; A 75 g a.i./ha, 20 days): 12.2%
pest or weed control at 150 g/ha (Capsella bursa-pastoris; A 150 g a.i./ha, 20 days): 28.9%

CC[C@@H](Oc1nc(F)c(Cl)c(N)c1Cl)C(=O)OC [Compound A172]
pest or weed control at 75 g/ha (Digitaria sanguinalis; A 75 g a.i./ha, 20 days): 21.2%
pest or weed control at 150 g/ha (Digitaria sanguinalis; A 150 g a.i./ha, 20 days): 38.9%
pest or weed control at 75 g/ha (Capsella bursa-pastoris; A 75 g a.i./ha, 20 days): 22.4%
pest or weed control at 150 g/ha (Capsella bursa-pastoris; A 150 g a.i./ha, 20 days): 47.9%

COC(=O)[C@@H](C)Oc1ncc(Cl)c(N)c1Cl [Compound A173]
pest or weed control at 75 g/ha (Digitaria sanguinalis; A 75 g a.i./ha, 20 days): 38.2%
pest or weed control at 150 g/ha (Digitaria sanguinalis; A 150 g a.i./ha, 20 days): 73.6%
pest or weed control at 75 g/ha (Capsella bursa-pastoris; A 75 g a.i./ha, 20 days): 24.8%
pest or weed control at 150 g/ha (Capsella bursa-pastoris; A 150 g a.i./ha, 20 days): 52.4%

C[C@@H](Oc1nc(F)c(Cl)c(N)c1Cl)C(=O)SCc1ccco1 [Compound A211]
pest or weed control at 75 g/ha (Digitaria sanguinalis; A 75 g a.i./ha, 20 days): 31.3%
pest or weed control at 150 g/ha (Digitaria sanguinalis; A 150 g a.i./ha, 20 days): 68.3%
pest or weed control at 75 g/ha (Capsella bursa-pastoris; A 75 g a.i./ha, 20 days): 5.8%
pest or weed control at 150 g/ha (Capsella bursa-pastoris; A 150 g a.i./ha, 20 days): 14.6%

C[C@@H](Oc1ncc(Br)c(N)c1Br)C(=O)O [Compound A212]
pest or weed control at 75 g/ha (Digitaria sanguinalis; A 75 g a.i./ha, 20 days): 11.5%
pest or weed control at 150 g/ha (Digitaria sanguinalis; A 150 g a.i./ha, 20 days): 24.6%
pest or weed control at 75 g/ha (Capsella bursa-pastoris; A 75 g a.i./ha, 20 days): 8.6%
pest or weed control at 150 g/ha (Capsella bursa-pastoris; A 150 g a.i./ha, 20 days): 14.5%

Cc1c(F)c(F)c(COC(=O)[C@@H](C)Oc2nc(F)c(Cl)c(N)c2Cl)c(F)c1F [Compound A213]
pest or weed control at 75 g/ha (Digitaria sanguinalis; [2]): 14.9%
pest or weed control at 150 g/ha (Digitaria sanguinalis; [3]): 31.2%
pest or weed control at 75 g/ha (Capsella bursa-pastoris; [2]): 14.6%
pest or weed control at 150 g/ha (Capsella bursa-pastoris; [3]): 26.8%

CCCCOCCOC(=O)[C@@H](C)Oc1nc(F)c(Cl)c(N)c1Cl [Compound A214]
pest or weed control at 75 g/ha (Digitaria sanguinalis; [2]): 21.9%
pest or weed control at 150 g/ha (Digitaria sanguinalis; [3]): 44.6%
pest or weed control at 75 g/ha (Capsella bursa-pastoris; [2]): 24.8%
pest or weed control at 150 g/ha (Capsella bursa-pastoris; [3]): 46.2%

COc1cc(OC)nc(Oc2cccc(Oc3nc(OC)cc(OC)n3)c2C(=O)O)n1 [bispyribac-sodium]
pest or weed control at 1.875 g/ha (Echinochloa caudate; Echinochloa, 576 h, bispyribac-sodium 1.875 g a.i./ha, read-out: Control effect (%) of B applied alone in corresponding dose): 5.5%
pest or weed control at 3.75 g/ha (Echinochloa caudate; Echinochloa, 576 h, bispyribac-sodium 3.75 g a.i./ha, read-out: Control effect (%) of B applied alone in corresponding dose): 16%
pest or weed control at 7.5 g/ha (Echinochloa caudate; Echinochloa, 576 h, bispyribac-sodium 7.5 g a.i./ha, read-out: Control effect (%) of B applied alone in corresponding dose): 44.9%
pest or weed control at 15 g/ha (Echinochloa caudate; Echinochloa, 576 h, bispyribac-sodium 15 g a.i./ha, read-out: Control effect (%) of B applied alone in corresponding dose): 62.1%
pest or weed control at 1.875 g/ha ([1]; B 1.875 g a.i./ha): 5.3%
pest or weed control at 3.75 g/ha ([1]; B 3.75 g a.i./ha): 17.4%
pest or weed control at 7.5 g/ha ([1]; B 7.5 g a.i./ha): 43.4%
pest or weed control at 15 g/ha ([1]; B 15 g a.i./ha): 62.9%
pest or weed control at 1.875 g/ha (Echinochloa oryzoides; Echinochloa oryzoides, 576 h, Table 102, 1.875 g a.i./ha, read-out: Control effect (%) of B applied alone in corresponding dose): 4.7%
pest or weed control at 3.75 g/ha (Echinochloa oryzoides; Echinochloa oryzoides, 576 h, Table 102, 3.75 g a.i./ha, read-out: Control effect (%) of B applied alone in corresponding dose): 18.2%
pest or weed control at 7.5 g/ha (Echinochloa oryzoides; Echinochloa oryzoides, 576 h, Table 102, 7.5 g a.i./ha, read-out: Control effect (%) of B applied alone in corresponding dose): 44.1%
pest or weed control at 15 g/ha (Echinochloa oryzoides; Echinochloa oryzoides, 576 h, Table 102, 15 g a.i./ha, read-out: Control effect (%) of B applied alone in corresponding dose): 62%

CS(=O)(=O)c1ccc(C(=O)C2C(=O)CCCC2=O)c(Cl)c1COCC1CCCO1 (centres unmarked) [tefuryltrione]
Control effect (%) of B applied alone in corresponding dose (Echinochloa caudate; Table 81, 7.5 g a.i./ha): 6.8%
Control effect (%) of B applied alone in corresponding dose (Echinochloa caudate; Table 81, 15 g a.i./ha): 13.1%
Control effect (%) of B applied alone in corresponding dose (Echinochloa caudate; Table 81, 30 g a.i./ha): 41.3%
Control effect (%) of B applied alone in corresponding dose (Echinochloa caudate; Table 81, 60 g a.i./ha): 65.4%
Control effect (%) of B applied alone in corresponding dose (Echinochloa oryzoides; B 7.5 g a.i./ha): 8.9%
Control effect (%) of B applied alone in corresponding dose (Echinochloa oryzoides; B 15 g a.i./ha): 18.8%
Control effect (%) of B applied alone in corresponding dose (Echinochloa oryzoides; B 30 g a.i./ha): 46.1%
Control effect (%) of B applied alone in corresponding dose (Echinochloa oryzoides; B 60 g a.i./ha): 69.3%

Cc1cc(C)n(Cc2c(S(C)(=O)=O)ccc(C(=O)c3c(C)nn(C)c3OC(=O)c3cn(C)nc3C)c2Cl)n1 [tripyrasulfone]
Control effect (%) of B applied alone in corresponding dose (Echinochloa caudate; Table 80, 18.75 g a.i./ha): 4.6%
Control effect (%) of B applied alone in corresponding dose (Echinochloa caudate; Table 80, 37.5 g a.i./ha): 16.0%
Control effect (%) of B applied alone in corresponding dose (Echinochloa caudate; Table 80, 75 g a.i./ha): 42.6%
Control effect (%) of B applied alone in corresponding dose (Echinochloa caudate; Table 80, 150 g a.i./ha): 74.3%
Control effect (%) of B applied alone in corresponding dose (Echinochloa oryzoides; B 18.75 g a.i./ha): 8.9%
Control effect (%) of B applied alone in corresponding dose (Echinochloa oryzoides; B 37.5 g a.i./ha): 18.0%
Control effect (%) of B applied alone in corresponding dose (Echinochloa oryzoides; B 75 g a.i./ha): 44.6%
Control effect (%) of B applied alone in corresponding dose (Echinochloa oryzoides; B 150 g a.i./ha): 75.2%
